Biological target: Y160W PNP mutant (Escherichia coli, UniProt P0ABP8, Y161W)
Settings: phosphate as variable substrate, 0.4 mM m^7Guo, allostery Eq. (2)
Experimental: Activity measurements were performed for each protein sample, before and after each experiment as a control of the state of the protein.
The classical Michaelis–Menten equation was fitted to the kinetic curves (i.e. initial rate of the reaction, v0, vs. initial substrate concentration, c0):1 v0c0=Vmax1c0/c0+KM1
Coefficients a and b express the degree of cooperation between the subunits in a dimer, while constants KM1 and Vmax1 characterize the active sites of the enzyme when the neighbouring site is free.
A more complex model was used if there was a statistically significant decrease in the residual sum of squares as judged by the F test at 95% confidence level.

Sequence of Y160W PNP mutant (P0ABP8 2-239 Y161W): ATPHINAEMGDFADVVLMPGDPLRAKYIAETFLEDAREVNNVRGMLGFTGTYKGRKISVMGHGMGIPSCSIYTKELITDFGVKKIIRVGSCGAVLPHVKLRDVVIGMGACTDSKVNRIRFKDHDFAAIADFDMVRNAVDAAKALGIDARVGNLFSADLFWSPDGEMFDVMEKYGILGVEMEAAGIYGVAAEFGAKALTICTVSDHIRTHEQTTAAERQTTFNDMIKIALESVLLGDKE

`O=P(O)(O)O` [Pi, Orthophosphate] was tested, and the “a (cooperativity coefficient, KM2 = aKM1)” value was 390 ± 122, the “b (cooperativity coefficient, Vmax2 = bVmax1)” value was 0.94 ± 0.05 and the Km (pH 7.0, 25 °C) was 18.7 ± 2.7 µM. The Vmax (pH 7.0, 25 °C) was 11.7 ± 0.4 U/mg.
